Measurements published in paper PMC4971072, “Chemically Homogenous Compounds with Antagonistic Properties at All α1-Adrenoceptor Subtypes but not β1-Adrenoceptor Attenuate Adrenaline-Induced Arrhythmia in Rats” (Frontiers in Pharmacology, 2016).
Where a name gives a salt, the structure may show the parent alone. Marks after values point to notes of the source that are not given here.

How the values were obtained:
[1] = target: T1, α1A-adrenoceptors (Rattus norvegicus, UniProt P43140); test: Functional bioassay, isolated rat tail artery, noradrenaline contraction; type: biochemical; details: noradrenaline as agonist
T1 construct: the middle part of the ventral caudal artery was removed; from tissue; host or cells: isolated rat tail (ventral caudal) artery rings
T1 sequence (P43140 1-466): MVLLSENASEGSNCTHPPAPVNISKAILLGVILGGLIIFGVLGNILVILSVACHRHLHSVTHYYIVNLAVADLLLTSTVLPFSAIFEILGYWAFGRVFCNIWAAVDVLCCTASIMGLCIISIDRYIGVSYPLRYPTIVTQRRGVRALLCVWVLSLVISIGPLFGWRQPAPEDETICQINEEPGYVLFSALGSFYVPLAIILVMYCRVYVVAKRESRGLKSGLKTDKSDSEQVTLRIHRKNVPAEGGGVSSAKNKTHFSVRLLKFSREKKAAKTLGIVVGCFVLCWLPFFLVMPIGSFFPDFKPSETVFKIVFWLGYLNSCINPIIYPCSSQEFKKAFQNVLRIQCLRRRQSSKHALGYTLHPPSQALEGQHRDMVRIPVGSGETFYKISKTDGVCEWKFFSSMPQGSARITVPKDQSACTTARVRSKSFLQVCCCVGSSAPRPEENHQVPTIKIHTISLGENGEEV
Procedure: The isolated artery, cut into ~4 mm long rings, was then horizontally put up between two stainless steel hooks (diameter 0.15 mm). One hook was fastened to the bottom of the chamber and the other to an isometric FDT10-A force displacement transducer (DMT Model 750TOBS, Denmark), linked with Powerlab 4/26 analyzer (ADInstruments), and processed by LabChart 7 software. […] The initial optimal tissues tension was set at 0.75 g. Chloroethylclonidine (3 μM) as the preferential α1B-adrenoreceptor alkylating agent was used during incubation and after 30 min it was completely washed off. Through 100 min of equilibration tissues were stimulated with noradrenaline (1 μM) four times with washing out until the contractile response become constant. Two cumulative concentration-response curves to noradrenaline, at an interval of 60 min, were established on each arterial ring both in the presence and absence of antagonist. The incubation with antagonists went on for 30 min. The experiments were carried out in the constant presence of yohimbine (0.1 μM) and propranolol (1 μM) to block α2- and β-adrenoceptors, respectively in order to minimize the involvement of these adrenoceptors in the response to noradrenaline.
Data are means ± S.E.M. of at least 4 separate experiments. To establish Hill slopes for the agonist concentration–response curves and calculate EC50 values, curves were fitted to all the data by non-linear regression. The EC50 value in the presence and absence of antagonists was used to ascertain the concentration ratio (CR). Schild analysis was performed.

[2] = target: α1-adrenoceptor; test: α1-adrenoceptor radioligand binding assay ([3H]-prazosin, rat cerebral cortex); details: read-out: Adrenergic receptors Ki α1
Procedure: The α1- and β1-adrenoceptor radioligand binding assay was performed on rat cerebral cortex. […] The cell pellet was resuspended in the Tris–HCl buffer and centrifuged again. Radioligand binding assays were performed in plates (MultiScreen/Millipore). […] The incubation was terminated by rapid filtration through glass fiber filters (Whatman GF/C) using a vacuum manifold (Millipore). The filters were then washed twice with the assay buffer and placed in scintillation vials with a liquid scintillation cocktail. […] All the assays were made in duplicate and the inhibitory constants (Ki) were estimated.
LO–labeled ligand concentration, KD–dissociation constant of labeled ligand

[3] = test system: normal ECG in rats; test: The effect on normal electrocardiogram in rats; type: in vivo, rat; details: anesthetized rats
Procedure: The experiment was carried out to exclude the influence of tested compounds on normal ECG. […] The influence on QRS complex, PQ interval, heart rate (RR), and QTc interval was determined.

[4] = test system: adrenaline-induced arrhythmia in rats; test: Therapeutic antiarrhythmic activity in adrenaline-induced arrhythmia; type: in vivo, rat; details: i.v. at ED84 at the peak of adrenaline-induced arrhythmia (20 μg/kg)
Procedure: The ECG was recorded constantly for 5 min as well as in the 10th and 15th min of the experiment.

[5] = test system: lipid peroxidation in rat brain homogenate; test: Lipid peroxidation in rat brain homogenate (TBARS), antioxidant effect; type: biochemical; details: 10^−3 M
[6] = i.p. at ED84, 0 min (initial values)

Schild slope ± S.E.M., α1A [1]: 1.10 ± 0.06
Kb ([1]; read-out: pA2 ± S.E.M., α1A (converted)): 3.24 nM
Ki [2]: 5.2 nM
Compound: COc1ccccc1N1CCN(CCCOc2c(C)cc(C)cc2C)CC1 [HBK-18, 1N-[3-(2,4,6-trimethylphenoxy)propyl]-4N-(2-methoxyphenyl)piperazine hydrochloride]
influence on ECG parameters (PQ interval, QRS complex, QTc interval) ([3]; i.p. at ED84): did not affect PQ interval, QRS complex or QTc interval
reduction of heart rate ([3]; i.p. at ED84, over the period of significant effect vs. initial values): 13−23%
Beats/min (ECG) [3, 6]: 328.0 ± 7.4 Beats/min
PQ (ECG) [3, 6]: 61.3 ± 4.6 ms
QRS (ECG) [3, 6]: 28.1 ± 3.1 ms
QT (ECG) [3, 6]: 73.9 ± 6.2 ms
QTc (ECG, Bazett) [3, 6]: 172.4 ± 13.5 ms
Beats/min (ECG) ([3]; i.p. at ED84, 5 min): 306.9 ± 9.0 Beats/min
PQ (ECG) ([3]; i.p. at ED84, 5 min): 61.5 ± 6.3 ms
QRS (ECG) ([3]; i.p. at ED84, 5 min): 30.4 ± 3.2 ms
QT (ECG) ([3]; i.p. at ED84, 5 min): 77.0 ± 7.0 ms
QTc (ECG, Bazett) ([3]; i.p. at ED84, 5 min): 174.2 ± 16.3 ms
Beats/min (ECG) ([3]; i.p. at ED84, 10 min): 298.7 ± 8.9 Beats/min
PQ (ECG) ([3]; i.p. at ED84, 10 min): 57.4 ± 4.2 ms
QRS (ECG) ([3]; i.p. at ED84, 10 min): 30.8 ± 3.6 ms
QT (ECG) ([3]; i.p. at ED84, 10 min): 77.7 ± 4.9 ms
QTc (ECG, Bazett) ([3]; i.p. at ED84, 10 min): 173.4 ± 11.7 ms
Beats/min (ECG) ([3]; i.p. at ED84, 15 min): 284.7 ± 7.6^a Beats/min
PQ (ECG) ([3]; i.p. at ED84, 15 min): 55.8 ± 1.6 ms
QRS (ECG) ([3]; i.p. at ED84, 15 min): 27.0 ± 2.9 ms
QT (ECG) ([3]; i.p. at ED84, 15 min): 76.1 ± 5.8 ms
QTc (ECG, Bazett) ([3]; i.p. at ED84, 15 min): 166.4 ± 14.5 ms
Beats/min (ECG) ([3]; i.p. at ED84, 20 min): 273.9 ± 8.0^b Beats/min
PQ (ECG) ([3]; i.p. at ED84, 20 min): 51.9 ± 3.8 ms
QRS (ECG) ([3]; i.p. at ED84, 20 min): 29.1 ± 2.7 ms
QT (ECG) ([3]; i.p. at ED84, 20 min): 77.9 ± 4.2 ms
QTc (ECG, Bazett) ([3]; i.p. at ED84, 20 min): 166.9 ± 11.1 ms
Beats/min (ECG) ([3]; i.p. at ED84, 30 min): 267.4 ± 17.5^c Beats/min
PQ (ECG) ([3]; i.p. at ED84, 30 min): 56.9 ± 3.5 ms
QRS (ECG) ([3]; i.p. at ED84, 30 min): 28.5 ± 2.8 ms
QT (ECG) ([3]; i.p. at ED84, 30 min): 75.3 ± 3.2 ms
QTc (ECG, Bazett) ([3]; i.p. at ED84, 30 min): 159.0 ± 9.7 ms
Beats/min (ECG) ([3]; i.p. at ED84, 40 min): 260.3 ± 22.8^c Beats/min
PQ (ECG) ([3]; i.p. at ED84, 40 min): 57.4 ± 3.1 ms
QRS (ECG) ([3]; i.p. at ED84, 40 min): 28.6 ± 2.8 ms
QT (ECG) ([3]; i.p. at ED84, 40 min): 76.9 ± 4.9 ms
QTc (ECG, Bazett) ([3]; i.p. at ED84, 40 min): 160.4 ± 14.4 ms
Beats/min (ECG) ([3]; i.p. at ED84, 50 min): 258.9 ± 25.4^c Beats/min
PQ (ECG) ([3]; i.p. at ED84, 50 min): 59.0 ± 3.8 ms
QRS (ECG) ([3]; i.p. at ED84, 50 min): 27.6 ± 3.0 ms
QT (ECG) ([3]; i.p. at ED84, 50 min): 76.0 ± 2.9 ms
QTc (ECG, Bazett) ([3]; i.p. at ED84, 50 min): 157.2 ± 9.9 ms
Beats/min (ECG) ([3]; i.p. at ED84, 60 min): 252.3 ± 25.1^c Beats/min
PQ (ECG) ([3]; i.p. at ED84, 60 min): 59.6 ± 4.7 ms
QRS (ECG) ([3]; i.p. at ED84, 60 min): 30.9 ± 3.8 ms
QT (ECG) ([3]; i.p. at ED84, 60 min): 76.7 ± 3.5 ms
QTc (ECG, Bazett) ([3]; i.p. at ED84, 60 min): 157.1 ± 12.0 ms
therapeutic antiarrhythmic activity (premature ventricular contractions) [4]: restored normal heart rhythm
inhibition of lipid peroxidation (in words) [5]: inhibited lipid peroxidation
% reduction of absorbance (% antioxidant activity) ([5]; TBARs at 532 nm): 13.41%
Absorbance ([5]; TBARs at 532 nm): 0.781 ± 0.004
